Read-outs that look alike come from different tables or passages of the source. Marks after values point to notes of the source that are not given here.

Data set [1] in a line: Phase I SAD study: RBC in urine / hematuria. Type of data set: in vivo, human. The protocol: (§1) During the IMU-838 (vidofludimus-calcium) phase I SAD study (Immunic study number P1-IMU-838-SAD), urine was collected from all volunteers and tested with respect to the amount of clinical relevant anions, including urate and oxalate. In addition, formation of anion crystals in the urine was measured. In this study, IMU-838 was tested as a single dose applied to male healthy volunteers. Five different dose regimens were tested which covered four different doses of IMU-838: 10 mg, 20 mg, 30 mg and 40 mg of IMU-838 in fastened patients, which means no food intake 10 hours prior to the treatment and two hours after dose application. In addition, one dose group received 10 mg of IMU-838 in fed state which means that the 10 mg dose was applied after a high-fat breakfast. Each group consisted of six healthy volunteers, except for the 40 mg dose group with only five volunteers.
Treatment of humans with IMU-838 leads to dose dependent increase of urate excretion through the urine and thus to formation of urate (micro)crystals.

Data set [2] in a line: Phase I SAD study: uric acid in 24 h collected urine. The format is in vivo, human. Particulars: for Uric acid, Pre dose (−24 h to 0): 24 h urine; for Increase of mean uric acid levels: post dose vs pre dose. The protocol:
as §1
The pre-dose value was derived from urine collected 24 hours before application of IMU-838 tablets. The post dose value was obtained by collecting 24 hours urine starting 4 hours after intake of IMU-838.

A short description of data set [3]: Three week phase I trial with dose-in phase (25 mg then 50 mg): urate in 24 h urine. The format is in vivo, human. Particulars: all 20 subjects incl. placebo. The protocol:
8 individuals were treated with 25 mg for 7 days, followed by 14 day treatment with a dose of 50 mg once daily. Another 8 volunteers were treated with placebo (dose 1=0 mg) for 7 days followed by treatment of 50 mg IMU-838. 4 volunteers received placebo for the whole time.
Based on the observations on a) dose dependent effect of IMU-838 on urate levels in the urine and formation of small crystals (example 1) and b) the time course and dose dependence of urate level changes in single volunteers (example 2) a new therapeutic treatment scheme was invented. In this example a treatment scheme was applied to a three week clinical phase I trial consisting of two different doses “dose 1” of 25 mg daily dose and “dose 2” of 50 mg daily dose. 8 subjects received a lower dose 1 for 7 days followed by the higher (double) dose 2 for further 14 days, whereas another 8 subjects received placebo for 7 days then followed by treatment with the 50 mg high dose (dose 2). 4 subjects received placebo during the foll three week period. During this study urine was collected at four different timepoints (pre-dose, day 1, day 7, day 14) and analyzed for urate/uric acid levels.

Data set [4] can be described thus: Phase I MAD trial (P1-IMU-838-MAD): uric acid in 24 h urine, 14 days once daily without predosing. The format is in vivo, human. The protocol:
Each group consists of 16 patients with 12 individuals receiving active drug IMU-838 (either 30 or 40 mg per day) and 4 patients receiving placebo.
In a randomized, placebo controlled double blind clinical Phase I MAD trial (Immunic study number P1-IMU-838-MAD), IMU-838 was applied to healthy volunteers for 14 days in order to test the effects of IMU-838 on safety and biomarkers for repeated once daily doses over 14 days. In the first part of this study, 12 individuals were treated with 30 mg of IMU-838, 12 individuals were treated with 40 mg of IMU-838 and 8 individuals received placebo (4 individuals in each group). For all 32 individuals, urate levels in the urine was quantified in three periods of 24 hour urine collection. The first collection was at pre-dose (day 0). The second urine collection started four hours after intake of the first dose (day 1, 4 hours to 28 hours). The third collection of urine was performed on the last day of the 14 day treatment cycle (day 14, 4 hours to 28 hours). The amounts of uric acid at those timepoints is depicted in FIG. 2a.

The nature of data set [5]: Phase I SAD study (P1-IMU-838-SAD): plasma concentration after single dose. The format is in vivo. To be noted: human, oral, read-out: maximum plasma concentrations (cmax).
Data set [6] can be described thus: Clinical study comparing treatment with and without pre-treatment phase: uric acid excreted in urine. Particulars: for Change in Median uric acid excreted in urine: Day 0 (first day of 50 mg dose), n 8. Type of data set: in vivo, human. From the text: A double-blind clinical study, Placebo controlled, Ascending Dose has been conducted. This study has been reported (Study Number P1-IMU-838-MAD).
Uric acid excretion in urine could be however modified with a pre-treatment period.

Data set [7] is described as follows: Clinical observations with vidofludimus: blood uric acid, urine RBC, hematuria. Type of data set: in vivo, human. The protocol:
A novel class of compounds with an inhibitory effect on DHODH, in particular human DHODH, was found and described in EP 2 093 214 A1. Vidofludimus (CAS 717824-30-1) is the free acid of a compound according to formula (I) and is tested in clinical trials in human subjects. […] Higher dose means e.g. doses higher than […] once daily application of vidofludimus in humans. However, doses of compounds of formula (I), e.g. higher than 200 μmol once daily application, sometimes lead to undesirable side effects such as an increased risk of increased red blood cell count (RBC) in the urine (hematuria).
At high vidofludimus doses (i.e. ≥70 mg/day or single doses of ≥210 mg) a decrease in blood uric acid levels and an increase in urine red blood cell count were observed, in very rare cases, presenting as symptomatic hematuria during the first 7 days of treatment. Laboratory findings were consistent with post-renal events and de novo precipitates in the urinary tract.
A side effect that may also be termed adverse effect is a harmful and undesired effect resulting from medication during its use in the prevention and/or treatment of a patient with the inventive compound (I).

Where [8] appears, read: high doses, ≥70 mg/day or single doses of ≥210 mg.

With `COc1cccc(-c2ccc(NC(=O)C3=C(C(=O)O)CCC3)c(F)c2)c1` [IMU-838], the “dose limiting side effects like hematuria” value in data set [1] (doses up to 40 mg of IMU-838) is reported as “no dose limiting side effects like hematuria occurred”. Also, in data set [1] (single doses 10 to 40 mg), the “RBC (red blood cell count) in urine” value is reported as “not leading to increase of RBC”. Further, the “Uric acid, Pre dose (−24 h to 0)” value in data set [2] (10 mg fasted group, N = 6, baseline before dosing) is on record as 520 mg/24 h; in data set [2] (40 mg fasted group, N = 4, baseline before dosing), 489^a mg/24 h. In addition, the “Uric acid, Post dose (4 to 28 h)” value in data set [2] (single dose 10 mg fasted, N = 6, 24 h urine) came out at 637 mg/24 h; in data set [2] (single dose 40 mg fasted, N = 5, 24 h urine) it was 734 mg/24 h. Besides, the “Increase of mean uric acid levels” value in data set [2] (single dose 10 mg fasted) came out at 117 mg/24 h; in data set [2] (single dose 40 mg fasted) it was 245 mg/24 h. The “mean 24 hours urinary urate level” value in data set [3] (after 1 day of treatment (4-28 hours)) is 789.5 mg; in data set [3] (after three weeks (day 21)), 815.9 mg; in data set [3] (first day of dose 2 50 mg (day 7 of the full trial)), 789.7 mg; in data set [3] (pre-dose baseline) it was 684.1 mg. Moreover, the “mean increase in 24 hours urinary urate levels” value in data set [3] (after 1 day of treatment (4-28 hours), dose 1 25 mg) amounted to 15%. Also, in data set [3] (day 21 vs first day of dose 2), the “overall increase of mean urinary urate level” value amounted to 4%. The “increase of uric acid compared with pre-treatment” value in data set [4] (30 mg and 40 mg groups, after the full 14 days treatment) is “around 30%”. The “amount of uric acid in 24 hour urine” value in data set [4] (30 mg group, pre-dose (day 0) baseline) is 605.9 mg; in data set [4] (30 mg once daily, day 14) it was 686.2 mg; in data set [4] (40 mg group, pre-dose (day 0) baseline) it was 541.4 mg; in data set [4] (40 mg once daily, day 14), 699.3 mg; in data set [4] (40 mg once daily, first day (4-28 hours after intake)), 620.3 mg. Moreover, the “increase of uric acid in urine” value is recorded as 29% in data set [4] (30 mg once daily, after 14 days vs pre-dose) and 15.2% in data set [4] (40 mg once daily, first day (4-28 hours) vs pre-dose). Further, the “increase of uric acid in urine at day one” value in data set [4] (30 mg once daily, day 1 (4 to 28 hours)) is “no increase”. Besides, the Cmax in data set [5] (single dose 10 mg IMU-838, fasted male healthy volunteers) was 1580 ng/mL; in data set [5] (male, single dose 40 mg IMU-838, fasted) it was 7860 ng/mL. Moreover, the “urinary excretion of uric acid after treatment initiation” value in data set [6] (P1-IMU-838-MAD dose groups) was “increased in all but the 30 mg group”. The entries for the “Change in Median uric acid excreted in urine” value in data set [6] (Placebo pre-treatment then 50 mg) and in data set [6] (Pre-dosing 25 mg for 6 days then 50 mg) were 86.5 mg/24 h and 49.5 mg/24 h, respectively.
As to `COc1cccc(-c2ccc(NC(=O)C3=C(C(=O)O)CCC3)c(F)c2)c1` [vidofludimus], the symptomatic hematuria result in data set [7] (daily doses of 35 mg) is “no cases of symptomatic hematuria”. For the same compound, in data set [7] (setting [8]), the “blood uric acid levels” value was “decrease” and the “urine red blood cell count” value is on record as “increase”.

The values are drawn from patent publication US12629347B2, “Compounds and dosage regimen for use in the prevention or treatment of chronic inflammatory and/or autoimmune diseases” (Immunic AG, priority 2017, dated 2026).
